Measurements as given in PubChem BioAssay AID248 (DTP/NCI, 2004).
Values joined by “and” are separate entries in the source; they are usually repeats but may differ in a detail not shown here. Equal entries are not always repeated. Toxic doses and inconclusive results are not listed. Rule as the data show it: active = T/C of 150% or more; inactive = T/C below 125%.

Tested on: L1210 leukemia ip in BDF1 mice, survival T/C
Assay: NCI In Vivo Anticancer Drug Screen. Data for tumor model L1210 Leukemia (intraperitoneal) in B6D2F1 (BDF1) mice
Conditions: endpoint: mean survival time, higher = longer survival
Method in brief: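 Tumor cells were implanted, animals were treated, and survival was followed. The result divides the treated measurement by the vehicle-control measurement.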

[1] = dose: 100.0 mg/kg/injection, schedule: Q04DX002 (ip), vehicle: saline with Tween-80
[2] = dose: 200.0 mg/kg/injection, schedule: Q04DX002 (ip), vehicle: saline with Tween-80
[3] = dose: 100.0 mg/kg/injection, schedule: Q01DX009 (ip), vehicle: saline
[4] = dose: 100.0 mg/kg/injection, schedule: Q04DX003 (ip), vehicle: saline
[5] = dose: 100.0 mg/kg/injection, schedule: Q01DX001 (ip), vehicle: carboxymethylcellulose (CMC)
[6] = dose: 200.0 mg/kg/injection, schedule: Q01DX001 (ip), vehicle: carboxymethylcellulose (CMC)
[7] = dose: 100.0 mg/kg/injection, schedule: Q01DX001 (ip), vehicle: Klucel (hydroxypropylcellulose) (HPC)
[8] = dose: 200.0 mg/kg/injection, schedule: Q01DX001 (ip), vehicle: Klucel (hydroxypropylcellulose) (HPC)
[9] = dose: 100.0 mg/kg/injection, schedule: Q01DX009 (ip), vehicle: Klucel (hydroxypropylcellulose) (HPC)
[10] = dose: 200.0 mg/kg/injection, schedule: Q01DX009 (ip), vehicle: Klucel (hydroxypropylcellulose) (HPC)
[11] = dose: 400.0 mg/kg/injection, schedule: Q01DX001 (ip), vehicle: Klucel (hydroxypropylcellulose) (HPC)
[12] = dose: 400.0 mg/kg/injection, schedule: Q01DX009 (ip), vehicle: Klucel (hydroxypropylcellulose) (HPC)
[13] = dose: 50.0 mg/kg/injection, schedule: Q01DX009 (ip), vehicle: saline with Tween-80
[14] = dose: 100.0 mg/kg/injection, schedule: Q01DX009 (ip), vehicle: saline with Tween-80
[15] = dose: 200.0 mg/kg/injection, schedule: Q01DX009 (ip), vehicle: saline with Tween-80
[16] = dose: 200.0 mg/kg/injection, schedule: Q04DX003 (ip), vehicle: saline
[17] = dose: 400.0 mg/kg/injection, schedule: Q04DX003 (ip), vehicle: saline
[18] = dose: 100.0 mg/kg/injection, schedule: Q04DX003 (ip), vehicle: Klucel (hydroxypropylcellulose) (HPC)
[19] = dose: 200.0 mg/kg/injection, schedule: Q04DX003 (ip), vehicle: Klucel (hydroxypropylcellulose) (HPC)
[20] = dose: 400.0 mg/kg/injection, schedule: Q04DX003 (ip), vehicle: Klucel (hydroxypropylcellulose) (HPC)

Measured: T/C

CN1CCN(P(=O)(c2ccccc2)N2CCN(C)CC2)CC1
inactive: [1] 98 % of control | [2] 98 % of control | dose: 400.0 mg/kg/injection, schedule: Q04DX002 (ip), vehicle: saline with Tween-80 98 % of control

COc1cc2c(cc1OC)CC[N+](C)=C2
inactive: dose: 12.5 mg/kg/injection, schedule: Q01DX009 (ip), vehicle: saline 92 % of control | dose: 25.0 mg/kg/injection, schedule: Q01DX009 (ip), vehicle: saline 95 % of control | dose: 25.0 mg/kg/injection, schedule: Q04DX003 (ip), vehicle: saline 108 % of control | dose: 50.0 mg/kg/injection, schedule: Q01DX009 (ip), vehicle: saline 93 % of control | dose: 50.0 mg/kg/injection, schedule: Q04DX003 (ip), vehicle: saline 100 % of control | [3] 96 % of control | [4] 103 % of control and 106 % of control

CCCC(C(=O)OCCN1CCCC12CCCCC2)C1CCCC1 (stereo not drawn)
inactive: dose: 13.0 mg/kg/injection, schedule: Q01DX Z (ip), vehicle: methylcellulose (MC) 92 % of control | dose: 20.0 mg/kg/injection, schedule: Q01DX Z (ip), vehicle: methylcellulose (MC) 91 % of control | dose: 30.0 mg/kg/injection, schedule: Q01DX Z (ip), vehicle: methylcellulose (MC) 88 % of control

O=S(c1cc(Br)ccc1O)c1cc(Br)ccc1O
inactive: [5] 98 % of control | [6] 93 % of control | dose: 400.0 mg/kg/injection, schedule: Q01DX001 (ip), vehicle: carboxymethylcellulose (CMC) 90 % of control

Clc1cc(NCc2ccco2)ncn1
inactive: dose: 50.0 mg/kg/injection, schedule: Q01DX001 (ip), vehicle: Klucel (hydroxypropylcellulose) (HPC) 103 % of control | [7] 97 % of control | [8] 97 % of control

Sc1c(Cl)c(Cl)c(Cl)c(Cl)c1Cl
inactive: [7] 106 % of control | [9] 93 % of control | [8] 106 % of control | [10] 100 % of control | [11] 104 % of control | [12] 93 % of control

O=C1CCc2c(Cl)sc(Cl)c21
inactive: [13] 91 % of control | [14] 88 % of control | [15] 96 % of control

CSCC(N)CO (stereo not drawn)
inactive: [3] 94 % of control | [4] 100 % of control | dose: 200.0 mg/kg/injection, schedule: Q01DX009 (ip), vehicle: saline 100 % of control | [16] 103 % of control | dose: 400.0 mg/kg/injection, schedule: Q01DX009 (ip), vehicle: saline 100 % of control | [17] 103 % of control

CCCCCCCCCC(=O)N/N=C/c1cccs1
inactive: [9] 101 % of control | [10] 101 % of control | [12] 89 % of control

c1ccc(-c2nc3nnnn3nc2-c2ccccc2)cc1
inactive: dose: 50.0 mg/kg/injection, schedule: Q01DX001 (ip), vehicle: saline 100 % of control | dose: 100.0 mg/kg/injection, schedule: Q01DX001 (ip), vehicle: saline 103 % of control | dose: 200.0 mg/kg/injection, schedule: Q01DX001 (ip), vehicle: saline 98 % of control

Clc1ccc2nc(/C=C/c3ccccc3)ccc2c1
inactive: dose: 100.0 mg/kg/injection, schedule: Q01DX001 (ip), vehicle: other 95 % of control | dose: 200.0 mg/kg/injection, schedule: Q01DX001 (ip), vehicle: other 104 % of control | dose: 400.0 mg/kg/injection, schedule: Q01DX001 (ip), vehicle: other 98 % of control

O=C(O)CCCc1cc(O)c2c(c1O)C(=O)c1ccccc1C2=O
inactive: dose: 100.0 mg/kg/injection, schedule: Q01DX001 (ip), vehicle: saline sonified 98 % of control | dose: 200.0 mg/kg/injection, schedule: Q01DX001 (ip), vehicle: saline sonified 102 % of control | dose: 400.0 mg/kg/injection, schedule: Q01DX001 (ip), vehicle: saline sonified 118 % of control

CCOc1c(OC)c2c3c(c(-c4c(C)cc5c(C(C)C)c(OCC)c(OC)c6c5c4OC6OC)c(C)cc3c1C(C)C)OC2OC (stereo not drawn)
inactive: [7] 94 % of control | [8] 93 % of control | [11] 100 % of control

CCOC(=O)c1cnc(C)nc1Nc1ccccc1Br
inactive: [18] 98 % of control | [19] 93 % of control | [20] 101 % of control

COc1cc(N(CCCl)CCCl)c(OC)cc1C=Nc1ccccc1C(=O)O
inactive: dose: 2.6 mg/kg/injection, schedule: Q01DX009 (ip), vehicle: carboxymethylcellulose (CMC) 108 % of control | dose: 4.4 mg/kg/injection, schedule: Q01DX009 (ip), vehicle: carboxymethylcellulose (CMC) 116 % of control | dose: 5.5 mg/kg/injection, schedule: Q01DX001 (ip), vehicle: Klucel (hydroxypropylcellulose) (HPC) 109 % of control | dose: 6.6 mg/kg/injection, schedule: Q01DX009 (ip), vehicle: carboxymethylcellulose (CMC) 123 % of control | dose: 10.0 mg/kg/injection, schedule: Q01DX009 (ip), vehicle: carboxymethylcellulose (CMC) 123 % of control | dose: 11.0 mg/kg/injection, schedule: Q01DX001 (ip), vehicle: Klucel (hydroxypropylcellulose) (HPC) 111 % of control | dose: 19.0 mg/kg/injection, schedule: Q01DX001 (ip), vehicle: carboxymethylcellulose (CMC) 117 % of control | dose: 22.0 mg/kg/injection, schedule: Q01DX001 (ip), vehicle: Klucel (hydroxypropylcellulose) (HPC) 117 % of control | dose: 29.0 mg/kg/injection, schedule: Q01DX001 (ip), vehicle: carboxymethylcellulose (CMC) 118 % of control

c1ccc(C(c2ccccc2)[Si](c2ccccc2)(c2ccccc2)c2ccccc2)cc1
inactive: [1] 90 % of control | [2] 97 % of control

CC1CC(C)(C)N=C(CCC2CCCC2=O)O1 (stereo not drawn)
inactive: [13] 104 % of control | dose: 50.0 mg/kg/injection, schedule: Q04DX003 (ip), vehicle: saline with Tween-80 95 % of control | [14] 98 % of control | dose: 100.0 mg/kg/injection, schedule: Q04DX003 (ip), vehicle: saline with Tween-80 91 % of control | [15] 100 % of control | dose: 200.0 mg/kg/injection, schedule: Q04DX003 (ip), vehicle: saline with Tween-80 96 % of control | dose: 400.0 mg/kg/injection, schedule: Q01DX009 (ip), vehicle: saline with Tween-80 100 % of control | dose: 400.0 mg/kg/injection, schedule: Q04DX003 (ip), vehicle: saline with Tween-80 91 % of control

C=C(C)[C@@H](/C=C/[C@@H](C)[C@H]1CC[C@H]2C3=CC[C@H]4C[C@@H](O)CC[C@]4(C)[C@H]3CC[C@]12C)CC
inactive: [5] 96 % of control | [6] 100 % of control

OCC1(CO)COC(c2ccccc2)OC1
inactive: dose: 25.0 mg/kg/injection, schedule: Q01DX009 (ip), vehicle: Klucel (hydroxypropylcellulose) (HPC) 101 % of control | dose: 50.0 mg/kg/injection, schedule: Q01DX009 (ip), vehicle: Klucel (hydroxypropylcellulose) (HPC) 101 % of control | dose: 50.0 mg/kg/injection, schedule: Q04DX003 (ip), vehicle: Klucel (hydroxypropylcellulose) (HPC) 97 % of control | [9] 108 % of control | [18] 90 % of control

CCOc1nsc(OCC)n1
inactive: dose: 75.0 mg/kg/injection, schedule: Q01DX009 (ip), vehicle: other 103 % of control | [4] 98 % of control | dose: 150.0 mg/kg/injection, schedule: Q01DX009 (ip), vehicle: other 107 % of control | [16] 101 % of control | dose: 300.0 mg/kg/injection, schedule: Q01DX009 (ip), vehicle: other 93 % of control | [17] 103 % of control

O=C(NCc1cnccn1)c1ccco1
inactive: dose: 50.0 mg/kg/injection, schedule: Q01DX005 (ip), vehicle: saline 109 % of control | dose: 100.0 mg/kg/injection, schedule: Q01DX005 (ip), vehicle: saline 111 % of control | dose: 200.0 mg/kg/injection, schedule: Q01DX005 (ip), vehicle: saline 104 % of control

O=C(OC1CC2CC1C1CSCC21)c1ccc([N+](=O)[O-])cc1 (stereo not drawn)
inactive: [9] 101 % of control | [18] 105 % of control | [10] 103 % of control | [19] 105 % of control | [12] 103 % of control | [20] 97 % of control
